Experimental data taken from patent publication US9381255B2, “Formulations comprising T3 nanoparticles” (Avant Garde Therapeutics and Technologies LLC, priority 2009, dated 2016).

Test: Blood levels of T3 after intraperitoneal administration in mice
Assay type: in vivo
Experimental: This T3-nanoparticle is administered intraperitoneally in mice.

## N[C@@H](Cc1cc(I)c(Oc2ccc(O)c(I)c2)c(I)c1)C(=O)O [free T3, triiodothyronine]
Intraperitoneal injection, FIG. 8B
  T3 blood levels: increased T3 blood levels which were followed by a subsequent leveling off
intraperitoneal, FIG. 8A
  amount of T3 remaining in the blood over time: A lesser amount of T3 remains over time
